# Reference: patent publication US9163020B2, “Azaindole compounds, synthesis thereof, and methods of using the same” (Global Alliance for TB Drug Development, priority 2013, dated 2015)
# Legend:
# in vivo [1] = conditions: Wistar, rat, in vivo
# Method: PK of azaindoles compounds was performed in mice (healthy and infected) and rats. Mice were pretreated with 100 mg/kg ABT two hours prior to the compound administration. PK data from healthy mice was used to design the dosing regimen for the efficacy study while, information from infected mice was used for the PK-PD analysis.
# All oral administration was performed as suspensions in 0.5% HPMC, and 0.1% Tween 80. […] All blood samples were collected via sapheneous vein into Microvette CB300® (Starstedt, Germany) tubes coated with Lithium-Heparin, and plasma was prepared from the collected blood by centrifugation.
# One mg/mL stock solution of each compound was prepared in Dimethylsulfoxide (DMSO) and diluted two-fold with acetonitrile. A sixteen point calibration curve was utilized for each analyte, and the standard curves ranged from 0.001 to 40 μg/mL. Plasma/BAL samples were precipitated by adding chilled acetonitrile (1:10 v/v) containing carbamazepine as internal standard (250 ng/mL). Samples were vortexed, and centrifuged at 4000 rpm for 30 min at 10° C. The resulting supernatant was mixed with mobile phase (50% acetonitrile in water with 0.1% formic acid). […] of sample was injected on to a liquid chromatographic system (Waters-ACQUTY UPLC) coupled to triple quadrupole mass spectrometer (Waters-ACQUTY-TQD; MS/MS). Samples were acquired in positive ion mode and detected by multiple reaction monitoring (MRM). Concentrations of the analyte were determined from a standard curve obtained by plotting known concentrations of the analyte against peak area ratios (analyte/internal standard peak response).
# PK analysis of the plasma concentration-time relationships were performed with WinNonlin Phoenix Software (version 6.2; Pharsight, USA). […] The maximum concentration of drug in plasma (Cmax), time to Cmax (Tmax), elimination half-life (t1/2), and AUC from time zero to infinity (AUC0-∞) were estimated. […] Minimum of three sample points in the terminal slope were used to estimate to calculate half-life.
# [2] = test system: panel of human targets and cardiac channels
# hERG = hERG (Homo sapiens, UniProt Q12809)
# Method: Compounds were tested on voltage-gated ion channels using the medium-throughput electrophysiology IonWorks™ device. […] For carrying out the experiment, a boat in the “Cells” position of the IonWorks™ instrument was loaded with the cell suspension, and a 96-well PBS destination plate was placed in the “Plate 1” position. A 384-well PatchPlate™ was placed in the IonWorks™ plenum and held in position using the plenum clamp. From this point the experiment progress is automated and ultimately reports a non-cumulative concentration-effect curve for test compound.
# [3] = infected BALB/c mice, chronic efficacy, multiple oral doses 30 mg/kg, +ABT
# [4] = 1 μM
# Method: Viability of cryopreserved hepatocytes was determined using trypan blue and the cell conc. was adjusted to 10^6 cells per mL with buffer (KHB buffer). 1 μM compound (in Acetonitrile; 0.01% DMSO) was incubated with 500 μL of hepatocyte cells (1 million cells per mL) in a NUNC plate. […] Supernatants were analyzed using LC-MS/MS for substrate depletion.
# [5] = test system: CYP1A2, CYP2C9, CYP2C19, CYP2D6, CYP3A4; conditions: human
# in vivo [6] = conditions: BALB/c, mouse, po, 50 mg/kg
# in vitro = in vitro ADME; conditions: pH 7.4; mouse microsomes; read-out: Mo micrsomal Clint
# Method: 1 μM compound was incubated with 1 mg/mL of microsomes (Pooled HLM/MLM with 20 mg/ml protein cone.) at 37° C. in 166 μL of buffer (100 mM phosphate buffer, pH-7.4) containing 2 mM NADPH solution. 20 μL of incubation mix was quenched with 4 volumes chilled acetonitrile at different time points i.e. 0, 2, 5, 10, 20 and 30 min in a fresh 96 well plate. The quench plate was centrifuged at 4000 rpm for 15 min. 30 μL of supernatant was diluted to 300 μL with 50% acetonitrile in water and substrate depletion was analyzed using LC-MS/MS.
# Chain of hERG (Q12809 whole entry): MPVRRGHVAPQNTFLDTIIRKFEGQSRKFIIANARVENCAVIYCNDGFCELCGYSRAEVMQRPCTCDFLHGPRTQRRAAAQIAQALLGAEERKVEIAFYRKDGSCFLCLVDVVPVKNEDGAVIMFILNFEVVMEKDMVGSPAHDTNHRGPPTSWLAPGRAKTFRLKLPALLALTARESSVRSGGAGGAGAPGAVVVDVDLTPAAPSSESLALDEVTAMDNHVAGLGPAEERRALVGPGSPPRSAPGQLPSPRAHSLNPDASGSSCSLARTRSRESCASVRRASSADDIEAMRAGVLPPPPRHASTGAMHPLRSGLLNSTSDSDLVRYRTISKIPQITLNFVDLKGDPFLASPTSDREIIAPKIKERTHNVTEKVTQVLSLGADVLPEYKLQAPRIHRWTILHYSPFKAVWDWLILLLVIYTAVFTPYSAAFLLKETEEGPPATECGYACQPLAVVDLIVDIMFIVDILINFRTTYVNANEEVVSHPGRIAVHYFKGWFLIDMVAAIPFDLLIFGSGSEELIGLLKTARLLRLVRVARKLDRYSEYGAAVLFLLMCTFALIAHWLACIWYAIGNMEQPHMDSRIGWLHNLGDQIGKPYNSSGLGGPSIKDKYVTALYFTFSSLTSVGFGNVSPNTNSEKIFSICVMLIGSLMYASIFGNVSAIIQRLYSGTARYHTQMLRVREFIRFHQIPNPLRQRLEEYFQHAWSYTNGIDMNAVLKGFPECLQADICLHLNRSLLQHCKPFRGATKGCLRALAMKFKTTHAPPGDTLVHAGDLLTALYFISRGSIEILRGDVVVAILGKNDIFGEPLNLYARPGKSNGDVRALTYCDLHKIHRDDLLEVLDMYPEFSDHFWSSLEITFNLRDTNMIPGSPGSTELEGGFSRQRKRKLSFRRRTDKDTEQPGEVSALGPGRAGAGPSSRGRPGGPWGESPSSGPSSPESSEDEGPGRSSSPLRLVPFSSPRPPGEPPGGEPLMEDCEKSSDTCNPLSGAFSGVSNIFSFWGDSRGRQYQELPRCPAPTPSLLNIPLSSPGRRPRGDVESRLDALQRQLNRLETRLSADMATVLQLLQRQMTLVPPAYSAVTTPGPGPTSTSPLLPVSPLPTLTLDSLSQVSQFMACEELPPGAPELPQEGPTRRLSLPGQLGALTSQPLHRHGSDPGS
smiles,measurement,setting,value
"COc1ncnc(Cn2cc(C(=O)NCCF)c3ncccc32)c1C [Compound 3, N-(2-fluoroethyl)-1-((6-methoxy-5-methylpyrimidin-4-yl)methyl)-1H-pyrrolo[3,2-b]pyridine-3-carboxamide]",AUC(0-t),"in vivo [1]; iv, 0.5 mg/kg",1.6 ± 0.29 µM·h
same,C0h,"in vivo [1]; iv, 0.5 mg/kg",1.76 ± 0.42 µM
same,Vd,"in vivo [1]; iv, 0.5 mg/kg",1.05 ± 0.28 L/kg
same,clearance,"in vivo [1]; iv, 0.5 mg/kg",15.5 ± 3.21 mL/min/kg
same,half-life,"in vivo [1]; iv, 0.5 mg/kg",2.22 ± 2.51 h
same,AUC(0-inf),"in vivo [1]; po, 30 mg/kg",101 µM·h
same,Cmax,"in vivo [1]; po, 30 mg/kg",15 µM
same,F,"in vivo [1]; po, 30 mg/kg",96%
same,Tmax,"in vivo [1]; po, 30 mg/kg",2 h
same,half-life,"in vivo [1]; po, 30 mg/kg",2.01 h
same,Secondary pharmacology hits IC50,[2],No significant hits
same,in vitro safety profiling,[2],no major safety liabilities
same,hERG,hERG,>33 µM
same,% T > MIC,[3],92%
same,% fT > MIC,[3],29%
same,Human CLpred hepatocytes (% LBF),[4],6.0 % LBF
same,Rat CLpred hepatocytes (% LBF),[4],13 % LBF
same,CYP inhibition,[5],>50 µM
same,AUC(0-inf),in vivo [6],106 ± 3.04 µM·h
same,Cmax,in vivo [6],17.8 ± 5.61 µM
same,Tmax,in vivo [6],4.33 ± 1.15 h
same,half-life,in vivo [6],2.38 ± 0.19 h
same,microsomal CLint,in vitro,104 µL/min/mg
